The results in this text go back to patent publication US7026289B2, “Method and compositions for treating hyperlipidemia and other conditions” (Societe de Conseils de Recherches et d'Applications …, priority 1997, dated 2006).

The test system of assay [1] is fatty (fa/fa) Zucker rats. Briefly: Reduction of glycerol and triglycerides, chronic treatment in obese rats. Type of assay: in vivo, rat. The following applies: for plasma glycerol / plasma triglycerides: 3 mg/kg s.c. twice a day, 6 days, vs saline. An excerpt: The obese (fa/fa) Zucker and its derivative in the Zucker diabetic fatty (ZDF/Drt-fa) are excellent models of diabetes-induced dyspilidemia (Shafrir, E., Diabetes/Metabolism Rev. 8:179–208 (1992); Peterson, R. G., et al., ILAR News 32:16–19 (1990)). The animals develop progressive hypertriglyceridemia and hypercholesterolemia.
Eleven male fatty Zucker rats weighing about 450 grams were randomly divided into 2 groups and their initial body wights recorded. The animals were housed in pairs in a normal 12 hour light/dark cycle at 20–21 C and fed a standard laboratory rat diet (Beekay rat and mouse diet, Bantin & Kingman, Hull, Humberside, U.K.) overnight ad libitum.
For the group assigned to receive drug treatment, the rats received BIM-23268C at 3 mg/kg, by subcutaneous injection twice a day at 10:00 a.m. and 5:00 p.m. The other group was treated with a subcutaneous injection of 0.1 ml/100 g of saline twice a day at 10:00 a.m. and 5:00 p.m. The animals were subjected to the BIM-23268 or saline treatment for a total of six days.
On the last day of treatment (day 6), food was removed at 5:00 p.m. and the rats fasted overnight. At 9:00 a.m. the next day, the animals were subjected to a glucose challenge, given as a 0.8 gram/kg of glucose orally. Periodic 400 ul of blood samples were taken from the tail vein (Peterson, R. G., ILAR News 32:16–19 (1990)) at 60 min. and 30 min. before, and at 30, 60, 90, and 120 min. after the administration of the glucose challenge (08. gram/kg orally). Aprotinin (Traysylol, Bayer UK, Hayward's Heath, W. Sussex, U.K.) and heparin (Sigma Chemical Co., Poole, Dorset, U.K.) were added to the blood samples to a final concentration of 400 KIU/ml and 100 units/ml, respectively. Plasma fractions were prepared from these samples by centrifugation at 400×G in a microfuge, for the estimation of triglycerides and glycerol. Samples were then stored at −80° C. until assayed.
Plasma glycerol and triglycerides were determined using the Sigma Enzymatic (Tinder) calorimetric assay kit (Cat #337-B, Sigma Chemical Co., Poole, Dorset, U.K.) and measuring absorbance at 540 nm in a spectrophotometer.

Assay [2] concerns the target T1, hSSTR-1 (Homo sapiens, UniProt P30872).
T1 construct: expressed in transfected cells
In words: Somatostatin receptor binding assay, [125I-Tyr11] somatostatin-14, CHO-K1 membranes. The following applies: displacement of 0.05 nM [125I-Tyr11] somatostatin-14, transfected CHO-K1 membranes. As for the experimental part: Restriction endonucleases are available from New England Biolabs (Beverly, Mass.). […] Other mammalian expression vectors include pcDNA1/Amp (Invitrogen, Sandlesy, Calif.). The expression plasmids were introduced into the suitable bacterial host, E. Coli HB101 (Stratagene, La Jolla, Calif.) and plasmid DNAs, for transfection, were prepared on Cesium Chloride gradients.
CHO-K1 (ovary, Chinese hamster) cells were obtained from ATCC (ATCC No. CCL 61). The cells were grown and maintained in Ham's F12 media (Gibco BRL, Grand Island, N.Y.) supplemented with 10% fetal bovine serum under standard tissue culture conditions. […] DNA mediated transfection was carried out using the calcium phosphate co-precipitation method (Ausubel, F. M., et al., Current Protocols in Molecular Biology, John Wiley & Sons, 1987). The plasmid pRSV-neo (ATCC; ATCC No. 37198) was included as a selectable marker at 1/10 the concentration of the expression plasmid. CHO-K1 clonal cell lines that have stably inherited the transfected DNA were selected for growth in Ham's F12 media containing 10% fetal bovine serum and 0.5 mg/ml of G418 (Sigma). The cells were ring-cloned and expanded in the same media for analysis.
Transfected cell lines expressing the human SSTR receptors were clonally expanded in culture and used in the following SSTR binding protocol.
The resulting supernatant was decanted and discarded. […]

Where [3] appears, read: samples 30 and 60 min before oral glucose challenge.
The mark [4] stands for this setting: through the 2-hour test period after oral glucose challenge.

Positions of bridges follow the written chain, without caps; N, C: chain ends. Non-standard residues stand in square brackets, D forms with d. Residues, ends and D or L forms follow the SMILES beside them.

T1 sequence (P30872 whole entry): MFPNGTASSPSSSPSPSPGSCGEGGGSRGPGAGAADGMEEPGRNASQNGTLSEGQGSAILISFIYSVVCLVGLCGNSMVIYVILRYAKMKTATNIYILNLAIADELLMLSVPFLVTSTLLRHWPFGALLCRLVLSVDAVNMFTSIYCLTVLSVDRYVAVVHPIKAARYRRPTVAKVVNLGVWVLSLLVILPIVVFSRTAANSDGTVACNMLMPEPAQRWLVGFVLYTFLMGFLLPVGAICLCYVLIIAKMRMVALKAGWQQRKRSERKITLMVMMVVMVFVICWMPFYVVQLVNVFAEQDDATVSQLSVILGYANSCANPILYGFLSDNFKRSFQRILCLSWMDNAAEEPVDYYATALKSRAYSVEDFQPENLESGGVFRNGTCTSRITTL

`C[C@@H](O)[C@@H]1NC(=O)[C@H](CCCCN)NC(=O)[C@@H](Cc2c[nH]c3ccccc23)NC(=O)[C@H](Cc2ccccc2)NC(=O)[C@H](Cc2ccccc2)NC(=O)[C@@H](N)CSSC[C@@H](C(N)=O)NC(=O)[C@H](Cc2ccccc2)NC1=O` [BIM-23268, H-Cys-Phe-Phe-D-Trp-Lys-Thr-Phe-Cys-NH2] (H-CFF[dW]KTFC-NH2; disulfide 1-8): in assay [1] (setting [3]), the plasma glycerol entry is “significantly lowered” and the plasma triglycerides entry is recorded as “significantly lowered”. Also, in assay [1] (setting [4]), the plasma glycerol entry is “significantly lower” and the plasma triglycerides entry was “significantly lower”. Further, the hypertriglyceridemia result in assay [1] (6-day treatment period at the prescribed dose (3 mg/kg s.c. twice a day)) is listed as “effective in reducing hypertriglyceridemia”.

`C[C@@H](O)[C@@H]1NC(=O)[C@H](CCCCN)NC(=O)[C@@H](Cc2c[nH]c3ccccc23)NC(=O)[C@H](Cc2ccc(O)c(I)c2)NC(=O)[C@H](Cc2ccccc2)NC(=O)[C@@H](N)CSSC[C@@H](C(N)=O)NC(=O)[C@H](Cc2ccccc2)NC1=O` [BIM-23313, H-Cys-Phe-Tyr(I)-D-Trp-Lys-Thr-Phe-Cys-NH2]: the affinity in assay [2] corresponds to a Ki of 151 nM.

As usually defined, the Ki is the equilibrium dissociation constant of an inhibitor or competing ligand from its target.
